Assay results: article PMC11954145, “Antimicrobial and ADME properties of methoxylated, methylated and nitrated 2-hydroxynaphthalene-1 carboxanilides” (ADMET & DMPK, 2025)
Converted amounts (≈) assume the structure as drawn. Like-named read-outs stand apart in the source and are kept apart here.

Experiments:
MRSA 63718 = assay: Antibacterial screening, broth microdilution MIC; format: cell-based, methicillin-resistant S. aureus; conditions: Staphylococcus aureus, clinical isolate, 24 h at 37 °C, read-out: MIC MRSA 63718
E. coli ATCC 25922 = assay: Antibacterial screening, broth microdilution MIC; format: cell-based; conditions: Escherichia coli, ATCC25922; ATCC 25922, 24 h at 37 °C
MRSA SA 630 = assay: Antibacterial screening, broth microdilution MIC; format: cell-based, methicillin-resistant S. aureus; conditions: Staphylococcus aureus, clinical isolate, 24 h at 37 °C, read-out: MIC MRSA SA 630
MRSA SA 3202 = assay: Antibacterial screening, broth microdilution MIC; format: cell-based, methicillin-resistant S. aureus; conditions: Staphylococcus aureus, clinical isolate, 24 h at 37 °C, read-out: MIC MRSA SA 3202
[1] = tested on: Enterococcus faecalis ATCC 29212; assay: Antibacterial screening, broth microdilution MIC; format: cell-based; conditions: read-out: MIC E. faecalis
S. aureus ATCC 29213 = assay: Antibacterial screening, broth microdilution MIC; format: cell-based; conditions: Staphylococcus aureus, ATCC29213; ATCC 29213, 24 h at 37 °C; read-out: MIC S. aureus
VRE 725B = assay: Antibacterial screening, broth microdilution MIC; format: cell-based, vancomycin-resistant E. faecalis; conditions: Enterococcus, read-out: MIC VRE 725B
VRE 342B = assay: Antibacterial screening, broth microdilution MIC; format: cell-based, vancomycin-resistant E. faecalis; conditions: Enterococcus, read-out: MIC VRE 342B
[2] = tested on: Mycobacterium kansasii DSM 44162; assay: Antimycobacterial screening, broth dilution MIC; format: cell-based; conditions: DSM44162, 336 h, read-out: MIC M. kansasii
[3] = tested on: Mycobacterium tuberculosis ATCC 25177/H37Ra; assay: Antimycobacterial screening, broth dilution MIC (Alamar blue); format: cell-based; conditions: 336 h, read-out: MIC M. tuberculosis
Method: The evaluation of in vitro antimycobacterial activity of the compounds was performed against Mycobacterium tuberculosis ATCC 25177/H37Ra, Mycobacterium kansasii DSM 44162 and Mycobacterium smegmatis ATCC 700084.
The broth dilution micro-method in Middlebrook 7H9 medium (Difco, Lawrence, KS, USA) supplemented with ADC Enrichment (Difco) was used to determine the minimum inhibitory concentration (MIC) as previously described. […] The final concentrations of the evaluated compounds, ranging from 256 to 0.125 μg mL^-1, were obtained by twofold serial dilution of the stock solution in a microtiter plate with a sterile medium. Bacterial inocula were prepared by transferring colonies from culture to sterile water. The plate was inoculated by tested microorganisms. The final concentration of bacterial cells was 1.5×10^6 for M. tuberculosis and 10^5 cells in a microtiter plate for other mycobacteria. Isoniazid and rifampicin (Sigma) were used as reference antimycobacterial drugs. Drug-free controls, sterility controls, and controls consisting of medium and DMSO alone were included. The plates were incubated for a defined time at an appropriate temperature (3 days at 37 °C for M. smegmatis, and 14 days at 37 °C for M. tuberculosis and M. kansasii). […] The MICs against M. tuberculosis were evaluated by Alamar blue (Oxoid). After incubation, 10 % of Alamar blue was added to each well, and the plate was incubated for 24 h. The MIC values were assessed as the lowest concentration of the tested compounds, which prevented changing blue resazurin to pink resorufin. The experiments were repeated three times. The minimum inhibitory concentrations (MICs) were defined as the lowest concentration of the compound at which no visible bacterial growth was observed. The MIC value is routinely and widely used in bacterial assays and is a standard detection limit according to the CLSI [60].

[4] = Lipophilicity determination by RP-HPLC (log k, log D); format: physicochemical; conditions: for log D6.5: RP-HPLC C18, MeOH 72 % / acetate-buffered saline pH 6.5; for log D7.4: RP-HPLC C18, MeOH 72 % / acetate-buffered saline pH 7.4; for log k (logarithm of the capacity factor): RP-HPLC C18, MeOH 72 % / water 28 %
Excerpt: An HPLC system Agilent 1200 equipped with a DAD detector (Agilent, Santa Clara, CA, USA) was used. A chromatographic column Symmetry® C18 5 μm, 4.6×250 mm, part No. WAT054275 (Waters Corp., Milford, MA, USA) was used. The HPLC separation process was monitored and evaluated with EZChrom Elite software ver. 3.3.2 (Agilent). Isocratic elution by a mixture of MeOH p.a. (72 %) and H2O-HPLC Mili-Q grade (28 %) as a mobile phase was used for the determination of capacity factor k. Isocratic elution by a mixture of MeOH p.a. (72 %) and acetate-buffered saline (pH 7.4 and pH 6.5) (28 %) as a mobile phase was used for the determination of distribution coefficients expressed as D7.4 and D6.5. The total flow of the column was 1.0 mL min^-1, the injection volume was 20 μL, the column temperature was 40 °C, and the sample temperature was 10 °C. The detection wavelength of 210 nm was chosen. A KI methanolic solution was used to determine the dead times (tD). Retention times (tR) were measured in minutes. The capacity factors k were calculated according to the formula k = (tR–tD)/tD, where tR is the retention time of the solute, and tD is the dead time obtained using an unretained analyte. The distribution coefficients DpH were calculated according to the formula DpH = (tR–tD)/tD. Each experiment was repeated three times.
The capacity factor and distribution coefficients were measured by RP-HPLC on a C18 column with methanol as an organic modifier of the mobile phase. In addition to the experimental lipophilicities, predicted log P values were also calculated using ACD/Percepta, see Table 1. […] The values of σ(Ar) are found in a wide range from 0.01 to 1.36, so the compounds contain substituents with both electron-donating and slightly electron-withdrawing properties.

VRE 368 = assay: Antibacterial screening, broth microdilution MIC; format: cell-based, vancomycin-resistant E. faecalis; conditions: Enterococcus, read-out: MIC VRE 368
[5] = tested on: Mycobacterium smegmatis ATCC 700084; assay: Antimycobacterial screening, broth dilution MIC; format: cell-based; conditions: Mycolicibacterium smegmatis, ATCC700084, 72 h; ATCC 700084, 3 days at 37 °C; read-out: MIC M. smegmatis
[6] = ATCC29212, ATCC 29212, 24 h at 37 °C
[7] = H37Ra, 14 days at 37 °C, Alamar blue

SMILES | MIC (MRSA 63718) [µM] | MIC (E. coli ATCC 25922) [µM] | MIC (MRSA SA 630) [µM] | MIC (MRSA SA 3202) [µM] | MIC [1, 6] [µM] | MIC (S. aureus ATCC 29213) [µM] | MIC [3, 7] [µM] | log D6.5 [4] | log D7.4 [4] | log k (logarithm of the capacity factor) [4] | MIC (VRE 725B; vanA isolate, 24 h at 37 °C) [µM] | MIC (VRE 342B; vanA isolate, 24 h at 37 °C) [µM] | MIC ([2]; DSM 44162, 14 days at 37 °C) [µM] | MIC (VRE 368; vanA isolate, 24 h at 37 °C) [µM] | MIC [5] [µM] | further results
CC1(C)S[C@@H]2[C@H](NC(=O)[C@H](N)c3ccccc3)C(=O)N2[C@H]1C(=O)O [AMP, ampicillin, reference compound] | 45.8 (≈ 16 µg/mL) | 45.8 (≈ 16 µg/mL) | 45.8 (≈ 16 µg/mL) | 45.8 (≈ 16 µg/mL) | 2.81 (≈ 0.982 µg/mL) | 5.72 (≈ 2 µg/mL) | – | – | – | – | – | – | – | – | – | –
COc1ccccc1NC(=O)c1c(O)ccc2ccccc12 [Compound 2, 2-hydroxy-N-(2-methoxyphenyl)naphthalene-1-carboxamide] | – | 873 (≈ 256 µg/mL) | – | – | – | – | > 873 | 0.3015 | 0.3069 | 0.3181 | – | – | – | – | – | MIC (VRE 725B; 24 h): > 873 µM; MIC (VRE 342B; 24 h): > 873 µM; MIC [2]: > 873 µM; MIC ([1]; ATCC29212, 24 h): > 873 µM; MIC (VRE 368; 24 h): > 873 µM
COc1cccc(NC(=O)c2c(O)ccc3ccccc23)c1 [Compound 3, 2-hydroxy-N-(3-methoxyphenyl)naphthalene-1-carboxamide] | 436 (≈ 128 µg/mL) | 873 (≈ 256 µg/mL) | 873 (≈ 256 µg/mL) | – | > 873 | 436 (≈ 128 µg/mL) | 218 (≈ 63.9 µg/mL) | 0.1643 | 0.1717 | 0.1751 | > 873 | > 873 | 109 (≈ 32 µg/mL) | > 873 | – | –
COc1ccc(NC(=O)c2c(O)ccc3ccccc23)cc1 [Compound 4, 2-hydroxy-N-(4-methoxyphenyl)naphthalene-1-carboxamide] | > 873 | 873 (≈ 256 µg/mL) | > 873 | > 873 | > 873 | > 873 | 109 (≈ 32 µg/mL) | -0.0491 | -0.0382 | -0.0380 | > 873 | > 873 | 218 (≈ 63.9 µg/mL) | > 873 | 436 (≈ 128 µg/mL) | –
COc1ccc(OC)c(NC(=O)c2c(O)ccc3ccccc23)c1 [Compound 5, N-(2,5-Dimethoxyphenyl)-2-hydroxynaphthalene-1-carboxamide] | 792 (≈ 256 µg/mL) | 792 (≈ 256 µg/mL) | 792 (≈ 256 µg/mL) | 792 (≈ 256 µg/mL) | 792 (≈ 256 µg/mL) | 792 (≈ 256 µg/mL) | 396 (≈ 128 µg/mL) | 0.3263 | 0.3310 | 0.3353 | 792 (≈ 256 µg/mL) | 792 (≈ 256 µg/mL) | 792 (≈ 256 µg/mL) | 792 (≈ 256 µg/mL) | 792 (≈ 256 µg/mL) | –
COc1cc(NC(=O)c2c(O)ccc3ccccc23)cc(OC)c1OC [Compound 7, 2-Hydroxy-N-(3,4,5-trimethoxyphenyl)naphthalene-1-carboxamide] | 838 (≈ 296 µg/mL) | 838 (≈ 296 µg/mL) | 838 (≈ 296 µg/mL) | 419 (≈ 148 µg/mL) | 724 (≈ 256 µg/mL) | 838 (≈ 296 µg/mL) | – | -0.1053 | -0.0948 | -0.1150 | 724 (≈ 256 µg/mL) | 724 (≈ 256 µg/mL) | 838 (≈ 296 µg/mL) | 724 (≈ 256 µg/mL) | 210 (≈ 74.2 µg/mL) | MIC [3]: 210 µM (≈ 74.2 µg/mL)
Cc1ccccc1NC(=O)c1c(O)ccc2ccccc12 [Compound 8, 2-hydroxy-N-(2-methylphenyl)naphthalene-1-carboxamide] | 462 (≈ 128 µg/mL) | 462 (≈ 128 µg/mL) | 462 (≈ 128 µg/mL) | 462 (≈ 128 µg/mL) | 462 (≈ 128 µg/mL) | 462 (≈ 128 µg/mL) | 231 (≈ 64.1 µg/mL) | 0.0745 | 0.0838 | 0.0858 | 462 (≈ 128 µg/mL) | 462 (≈ 128 µg/mL) | 115 (≈ 31.9 µg/mL) | 462 (≈ 128 µg/mL) | 462 (≈ 128 µg/mL) | –
Cc1cccc(NC(=O)c2c(O)ccc3ccccc23)c1 [Compound 9, 2-hydroxy-N-(3--methylphenyl)naphthalene-1-carboxamide] | 462 (≈ 128 µg/mL) | 462 (≈ 128 µg/mL) | – | – | 462 (≈ 128 µg/mL) | – | 231 (≈ 64.1 µg/mL) | 0.1644 | 0.1727 | 0.1762 | 462 (≈ 128 µg/mL) | 462 (≈ 128 µg/mL) | 115 (≈ 31.9 µg/mL) | 462 (≈ 128 µg/mL) | – | –
Cc1ccc(NC(=O)c2c(O)ccc3ccccc23)cc1 [Compound 10, 2-hydroxy-N-(4-methylphenyl)naphthalene-1-carboxamide] | 462 (≈ 128 µg/mL) | 462 (≈ 128 µg/mL) | 462 (≈ 128 µg/mL) | 462 (≈ 128 µg/mL) | 462 (≈ 128 µg/mL) | – | 231 (≈ 64.1 µg/mL) | 0.1553 | 0.1632 | 0.1658 | 462 (≈ 128 µg/mL) | 462 (≈ 128 µg/mL) | 115 (≈ 31.9 µg/mL) | 462 (≈ 128 µg/mL) | > 923 | –
Cc1ccc(C)c(NC(=O)c2c(O)ccc3ccccc23)c1 [Compound 11, N-(2,5-Dimethylphenyl)-2-hydroxynaphthalene-1-carboxamide] | 110 (≈ 32 µg/mL) | 879 (≈ 256 µg/mL) | 110 (≈ 32 µg/mL) | 110 (≈ 32 µg/mL) | 879 (≈ 256 µg/mL) | 110 (≈ 32 µg/mL) | 439 (≈ 128 µg/mL) | 0.2455 | 0.2514 | 0.2486 | 879 (≈ 256 µg/mL) | 879 (≈ 256 µg/mL) | 110 (≈ 32 µg/mL) | 879 (≈ 256 µg/mL) | 220 (≈ 64.1 µg/mL) | –
NNC(=O)c1ccncc1 [INH, isoniazid, reference compound] | – | – | – | – | – | – | 36.5 (≈ 5.01 µg/mL) | – | – | – | – | – | 233 (≈ 32 µg/mL) | – | 117 (≈ 16 µg/mL) | –
CO[C@H]1/C=C/O[C@@]2(C)Oc3c(C)c(O)c4c(O)c(c(/C=N/N5CCN(C)CC5)c(O)c4c3C2=O)NC(=O)/C(C)=C\C=C\[C@H](C)[C@H](O)[C@@H](C)[C@@H](O)[C@@H](C)[C@H](OC(C)=O)[C@@H]1C [RIF, rifampicin, reference compound] | – | – | – | – | – | – | 9.71 (≈ 7.99 µg/mL) | – | – | – | – | – | 0.15 (≈ 0.123 µg/mL) | – | 19.4 (≈ 16 µg/mL) | –
